Source: patent US11214561B2, “Histone methyltransferase EZH2 inhibitor, preparation method and pharmaceutical use thereof” (ANCUREALL PHARMACEUTICAL (SHANGHAI) CO., LTD., priority 2017, dated 2022)

Assays:
Pfeiffer (EZH2 A677G) = experiment: In vitro 50% growth inhibition (GI50), MTT/CCK8, Pfeiffer cells; type: cell-based, Human; details: Homo sapiens, Pfeiffer, 240 h; Drug treatment for 10 days
SU-DHL-8 (EZH2 WT) = experiment: In vitro 50% growth inhibition (GI50), MTT/CCK8, SU-DHL-8 cells; type: cell-based; details: Homo sapiens, SU-DHL-8, 144 h; Drug treatment for 6 days
[1] = In vivo pharmacokinetics in rats; details: SD rats
Protocol: Test Example 4 Study of In Vivo Pharmacokinetics of the Present Compounds in Rats
Male SD rats (Shanghai Sippr-BK Experimental Animal Co., Ltd) were purchased and kept in Shanghai University of Traditional Chinese Medicine animal center (approved by the ethics committee of Shanghai University of Traditional Chinese Medicine) for 7 days. The rats were randomly divided into 4 groups (˜220 g), 3 rats for each group. Animals were administered intravenously (iv) and orally (po). The rats in po group were starved for 12 hours before administration. After administration, blood was collected from the orbital venous plexus at 0 min (before administration), 2 min, 5 min, 15 min, 30 min, 1 h, 2 h, 4 h, 6 h, 8 h and 24 h. About 200 ul of blood was collected at each time point, and were collected in 1.5 ml centrifuge tube containing heparin sodium. The upper blood […] were collected by centrifugation (8000 rpm, 3 min) and stored at −80° C.
Preparation of test samples: 125.0 mg compound 34 or compound 35 was weighed and added with 4 ml ultrapure water, and 25 ul methanesulfonic acid was added with stirring. The mixture was further stirred until clear and transparent (pH ˜3.32). 1 ml of the above solution was added with 4 ml of ultra-pure water to obtain 5 mg/ml of compound 34 or compound 35 solution (pH=3.5).
Dose and mode of administration: single oral dose (100 mpk) and single intravenous dose (5 mpk).
Administration volume: 4 ml/kg (orally), 1 ml/kg (intravenously).
The plasma concentration of the compound was determined by LC-MS/MS (AB scexqtrap@4500 LCMS/MS system). Pharmacokinetic parameters were calculated by WinNonlin (a professional software). The experiment was repeated once.

[2] = test system: EZH2 A677G mutant positive-expressing tumor cell line Pfeiffer; experiment: In vivo growth inhibition, Pfeiffer subcutaneous transplantation model; details: for Tumor volume: 200 mg/kg orally once a day
Excerpt: Test Example 2 Determination of the in vivo growth inhibition activity of the present compounds on EZH2 A677G mutant positive-expressing tumor cell line Pfeiffer NOD/SCID mice were subcutaneously inoculated with human diffuse large cell B lymphoma lymphocyte Pfeiffer (ATCC) expressing EZH2 A677G mutant protein to establish a subcutaneous transplantation model of human B cell lymphoma.
Experimental animals: NOD/SCID mice, female, 9 weeks (weeks of age when tumor cell inoculation), average weight 20.3 g, 18 mice, were purchased from Shanghai Lingchang biotechnology co., Ltd. with animal certificate No.: 2002007656. The breeding environment was SPF grade.
Test samples: the present example compounds 34 (purity: 99.03%) and 35 (purity: 97.6%), solid powder, preserved at −20° C.
Pfeiffer cells were cultured in RPM1640 medium containing 10% of fetal bovine serum. Log-phase Pfeiffer cells were collected and resuspended with PBS to 1×10^8 cells per ml for subcutaneous inoculation in NOD/SCID mice.
All the mice were treated with Co60 irradiation at a dose of 200 rad the day before the inoculation, and 1×10^7 Pfeiffer cells were then subcutaneously inoculated at the right back, and the cells were resuspended in 1:1 PBS and Matrigel (0.1 ml/mouse). When the average tumor volume was 134 mm^3, the mice were randomly grouped according to tumor size. Tumor volume was calculated as: long diameter×short diameter^2/2. The day of tumor cells inoculation was defined as day 0. The test was divided into solvent control group and drug treatment group (compound 34 group and compound 35 group). 6 mice for each group were given orally once a day for a total of 4 weeks. Efficacy was assessed based on relative tumor growth inhibition value (TGI), and safety was assessed based on animal weight change and mortality.
Preparation of test samples: compounds 34 or 35 was weighed and mixed with ultrapure water, and methanesulfonic acid was added for clarification. The PH value was about 1.64 at this moment. 4M NaOH was then added to adjust the PH to 3.5 and bring to volume by ultrapure water, the final concentrations was 20 mg/ml. Determination standard: TGI (%): […].
T/C % refers to the relative value-added rate of tumor, that is, the percentage value of relative tumor volume or tumor weight for the treatment group and the control group at a certain point. T and C were the relative tumor volumes (RTV) of the treatment group and the control group at a specific point, respectively. The calculation formula is as follows: T/C%=TRTV/CRTV*100% TRTV: mean RTV of the treatment group; CRTV: mean RTV of solvent control group; RTV=Vt/V0, V0 was the tumor volume of the animal when grouping, Vt was the tumor volume of the animal after treatment. Statistical analysis: all test results were defined as mean tumor volume±SEM (mean standard error). Tumor volume data of 27 days after the start of treatment were selected for statistical analysis among different groups, and independent sample T test was used to compare whether there were significant differences in tumor volume between the treatment group and the control group. All data were analyzed using SPSS 18.0. P<0.05 was considered as significant difference.

[3] = 200 mg/kg, 27th day after the start of treatment
[4] = 200 mg/kg, 27 days after the start of treatment

Question: Which results are given for `C=CC(=O)N1CCC(N(CC)c2cc(-c3ccc(CN4CCCCC4)cc3)cc(C(=O)NCc3c(C)cc(C)[nH]c3=O)c2C)CC1` [Example 34, N-(4,6-dimethyl-2-oxo-1,2-dihydro-pyridin-3-ylmethyl)-5-[(1-acryloyl-piperidin-4-yl)-ethyl-amino]-4-methyl-4′-(piperidin-1-ylmethyl)-[1,1′-biphenyl]-3-carboxamide]?
Answer: GI50 (Pfeiffer (EZH2 A677G)): 1 to 10 nM; GI50 (SU-DHL-8 (EZH2 WT)): > 1000 nM; bioavailability, in words [1]: good bioavailability; bioavailability ([1]; male, rat, plasma, IV 5 mg/kg, PO 100 mg/kg, methanesulfonic acid aqueous solution): 48.8%; body weight during the treatment ([2]; 200 mg/kg dose): maintained a stable body weight; tolerability ([2]; 200 mg/kg dose): well tolerated; Tumor volume ([2]; Day 0 after the start of treatment): 135 ± 10 mm^3; Tumor volume ([2]; Day 3 after the start of treatment): 298 ± 25 mm^3; Tumor volume ([2]; Day 7 after the start of treatment): 439 ± 48 mm^3; Tumor volume ([2]; Day 10 after the start of treatment): 441 ± 56 mm^3; Tumor volume ([2]; Day 14 after the start of treatment): 381 ± 39 mm^3; Tumor volume ([2]; Day 17 after the start of treatment): 472 ± 100 mm^3; Tumor volume ([2]; Day 21 after the start of treatment): 477 ± 158 mm^3; Tumor volume ([2]; Day 24 after the start of treatment): 570 ± 154 mm^3; Tumor volume ([2]; Day 27 after the start of treatment, listed as Compound 34): 538 ± 199 mm^3; Tumor volume ([2]; Day 27 after the start of treatment, listed as compound 34): 538 mm^3; RTV (x ± S), relative tumor volume [2, 3]: 4.7 ± 2.3; T/C (%), relative tumor volume [2, 3]: 32.9%; TGI (%), relative tumor volume [2, 3]: 67.1%; T/C (%), tumor weight [2, 4]: 23.4%; TGI, tumor weight [2, 4]: 76.6%; Tumor weight (mg) (x ± S) [2, 4]: 264 ± 113 mg; anti-tumor effect, in words ([2]; 200 mg/kg, versus solvent control group): significant anti-tumor effects
